# Assay results taken from US20240385182A1, “MASKED FLUOROGENIC LIPID COMPOUNDS, LIPID PARTICLES COMPRISING THE SAME, AND METHODS OF USE THEREOF” (Rutgers, The State University of New Jersey, priority 2023, published 2024).
# How the values were obtained:
# [1] = Confocal imaging of H2S-sensing giant vesicles; conditions: GVs with POPC, POPG, cholesterol; H2S (500 μM) over 1 hour
# Text: FIGS. 14A-14B: giant vesicles (GVs) that can sense reductive (FIG. 14A) or oxidative (FIG. 14B) environments. Confocal images acquired for H2S-sensing GV at 405/475 nm (ex/em) (FIG. 14A) and H2O2 sensing GV at 490/520 nm (ex/em) (FIG. 14B). Lipid compositions of GVs: POPC, POPG, cholesterol, and DPPC-TC-H2S (48:21:30:1 molar ratio; FIG. 14A); and POPC, POPG, cholesterol, and DPPC-TF-H2O2 (48.5:21:30:0.5; FIG. 14B). To label vesicle membranes, Liss-Rhod PE dye (563/580 nm) was introduced to the lipid mixture at an insignificant molar ratio (0.1 mol %). Concentrations of RSS and ROS were set to 500 and 100 μM, respectively. Scale bar=5 μm.
# The redox sensing abilities of giant vesicles (GVs) comprising DPPC-TC-H2S or DPPC-TF-H2O2 were investigated. In most biomimetic systems that rely on compartmentalization, physical membrane boundaries are comprised of phospholipids and cholesterol. These lipid self-assemblies have dimensional properties (1-30 μm in diameter) relevant to those of a mammalian plasma membrane (10-100 μm), display physical characteristics feasible for confocal fluorescence imaging, and are conveniently utilized for bottom-up construction of biomimetic protocells. […]
# The vesicle size distribution was analyzed by dynamic light scattering (DLS), confirming the presence of GVs. […]
# [2] = Photophysical characterization of probes and uncaged forms (relative fluorescence quantum yield, extinction coefficient, brightness); type: physicochemical; conditions: for Relative Brightness: Table 3; for Brightness: in M⁻¹·cm⁻¹ (unit assumed)
# Experimental: The pKa of TEG-TC was determined to be 7.1±0.1 using UV-Vis spectrophotometric measurements. Under the confocal imaging conditions (pH 7.5-8.5 with cell-free assays, pH 7.4 with cells), a substantial population of the 7-hydroxycoumarin should exist in its aryloxide form. The change in coumarin fluorogenicity was assessed upon uncaging the probes from the oxobutylphenyl carbonate by measuring the relative fluorescence quantum yield (ΦFrel) values (Table 2). Coumarin 343 was used as a standard, which has an absolute fluorescence quantum yield ([…]) of 0.63 in ethanol. The ΦFrel values of TEG-TC-ONOO^− (entry 1) and DPPC-TC-ONOO^− (entry 3) were measured as 0.08 and 0.09, respectively. […] The ΦFrel values for TEG-TC (entry 2) and DPPC-TC (entry 4), which were synthesized independently, were measured as 0.66 and 0.64, respectively.
# Next, the impact of caging and uncaging of the coumarin or fluorescein moieties on their fluorogenicity was assessed by measuring the relative fluorescence quantum yield (ΦFrel) values (Table 3). Coumarin 343 was used as the standard for measuring ΦFrel of the triazole-coumarin compounds (TEG-TC-H2S, TEG-TC, DPPC-TC-H2S, and DPPC-TC) whereas fluorescein for the triazole-fluorescein compounds (TEG-TF-H2O2, TEG-TF, and DPPC-TF-H2O2, and DPPC-TF). Relative to coumarin 343, whose absolute fluorescence quantum yield (ΦF) is 0.63 in ethanol, ΦFrels of the H2S probes TEG-TC-H2S (entry 1) and DPPC-TC-H2S (entry 3) were determined to be 0.07 and 0.03, respectively.
# The pKa of TEG-TC was previously found to be to be 7.1±0.1 using UV-Vis spectrophotometric measurements. Under the fluorescence activation assay conditions that are employed here (Tris 50 mM, pH 7.5), a substantial population of the coumarin moiety is expected to be in its aryloxide anion form. Relative to fluorescein, whose ΦF is 0.79 in ethanol, ΦFrel values of the H2O2 probes TEG-TF-H2O2 (entry 5) and DPPC-TF-H2O2 (entry 7) were determined to be 0.04 and 0.02, respectively.
# [3] = Fluorescence activation and LoD of TEG-TF-H2O2 with H2O2 in Tris buffer
# Experimental: FIGS. 13A-13D: specificity (FIGS. 13A-13B) and limit of detection (LoD) (FIGS. 13C-13D) of TEG-TC-H2S and TEG-TF-H2O2. LoD measurements for the probes TEG-TC-H2S (390/475 nm) and TEG-TF-H2O2 (485/525 nm) were performed in Tris buffer (50 mM, pH 7.5). Error bars represent the standard deviation; n=3. Single-tailed Student's t test: *, P<0.05; **, P<0.01; ***, P<0.001; ****, P<0.0001.
# (§1) The redox-specificities of the non-amphiphilic probes, TEG-TC-H2S or TEG-TF-H2O2, were assessed by subjecting them to various RSS or ROS (FIGS. 13A-13B). Change in fluorescence intensity following excitation of each sample containing the respective probe was measured over 120 minutes of incubation and presented based on the signal-to-background ratio F/F0, where F and F0 are defined as the fluorescence with and without the redox species. The F/F0 of the untreated samples were set to 1 for comparisons. […] Samples containing TEG-TF-H2O2 and treated with 100 μM H2O2 presented a steady fluorescence enhancement within 2 hours, resulting in 4.4-fold higher fluorescence than those of the untreated samples (FIG. 13B).
# (§2) The specificity of TEG-TC-H2S toward H2S was evaluated by comparing its reactivity against different RSS, cysteine (Cys), glutathione (GSH), sulfite (SO3^2−), and thiosulfate (S2O3^2−). At 1 mM initial concentration and a total incubation time of 2 hours, these sulfur species induced an increase in coumarin fluorescence by less than 25% compared to the untreated sample (FIG. 13A). […] The specificity of TEG-TF-H2O2 toward H2O2 was also assessed, by incubating the samples containing TEG-TF-H2O2 with 100 μM either hydroxyl radical (·OH), nitric oxide (NO), or superoxide radical (O2·^−) for 2 hours. Among these three reactive oxygen species, ·OH induced the highest fluorescence increase (2.2-fold), which was lower than that for H2O2 (4.4-fold). The relatively low yet observable reactivity of ·OH may have been due, in large part, to the residual unreacted H2O2 used for generating ·OH. […]
# [4] = Specificity of TEG-TF-H2O2 against other ROS; conditions: ·OH 100 μM, 2 hours
# Experimental: as §1
# as §2, with “hours.” for “hours. Among these three reactive oxygen species, ·OH induced the highest fluorescence increase (2.2-fold), which was lower than that for H2O2 (4.4-fold). The relatively low yet observable reactivity of ·OH may have been due, in large part, to the residual unreacted H2O2 used for generating ·OH.”
Structure (SMILES),GV fluorescence [1],Emmax [2],Exmax [2],Ext. Coeff. [2],Relative Brightness ([2]; brightness compared to that of DPPC-TC-H2S),Brightness [2],Quantum Yield (relative fluorescence quantum yield ΦFrel) ([2]; standard coumarin 343),"fluorescence compared to untreated samples ([3]; 100 μM H2O2, 2 hours, Tris pH 7.5)","LoD ([3]; minimum H2O2 concentration at which F is statistically higher than F0, 485/525 nm, Tris 50 mM pH 7.5)","fluorescence increase of the untreated sample compared to the fluorescence at 1 min (possible hydrolysis) ([3]; no redox species, pH 7.5, 120 minutes)",Relative Brightness ([2]; brightness compared to that of DPPC-TF-H2O2),Quantum Yield (relative fluorescence quantum yield ΦFrel) ([2]; standard fluorescein),fluorescence increase [4]
CCCCCCCCCCCCCCCC(=O)OCC(COP(=O)([O-])OCC[N+](C)(C)Cc1cn(-c2cc3ccc(OCc4ccc(N=[N+]=[N-])cc4)cc3oc2=O)nn1)OC(=O)CCCCCCCCCCCCCCC (racemic) [DPPC-TC-H2S],significant increase in fluorescence,473.5 nm,396.5 nm,24111 M⁻¹ cm⁻¹,1.0,72,0.03,–,–,–,–,–,–
CC1(C)OB(c2ccc(COC(=O)Oc3ccc4c(c3)Oc3cc(OC(=O)OCc5ccc(B6OC(C)(C)C(C)(C)O6)cc5)ccc3C43OC(=O)c4cc(-n5cc(COCCOCCOCCO)nn5)ccc43)cc2)OC1(C)C [TEG-TF-H2O2],–,526.0 nm,492.0 nm,13429 M⁻¹ cm⁻¹,–,537,–,4.4 fold,10 µM,277%,2.5,0.04,2.2 fold
